Experimental data: patent US12528840B2, “Transcription active complex targeting cancer drug from viral protein sequence” (The Regents of the University of California, priority 2020, dated 2026)

Tested on: BCBL-1 PEL cell line
Assay: PEL xenograft study in NRG mice
Description: We mapped the responsible domain and molecular mechanisms with biochemical and genetic approaches (FIG. 1).
Based on cell killing efficacies of the peptide in vitro, we select two peptides and examine the efficacies to inhibit tumor growth in xenograft models. We use a PEL cell xenograft models. […] Standardized PK/PD studies are completed in rat models at the UCD comprehensive cancer center PK/PD core facility.
Amino acid sequence alignment identified homologous protein sequences in other gamma-herpesvirus protein sequence (The Top table in FIG. 8a, also shown in FIG. 2). Based on their alignment, “non-natural” protein sequences were generated by substituting specific amino acids (The peptides are: Wt d1-1, DS 3-1, DE 3-1, and Mut d1-1 (control peptide) from the top to the bottom in the Bottom Table in FIG. 8a). Those four peptides were used in MTT assays in FIG. 8b to examine the effects on cell growth of BCBL-1 […] effusion lymphoma (PEL) cell line. Also tested are three D-amino acid substitutions first two amino acids and c-terminal amino acid (ST d3-1), in comparison with one D-amino acid peptide (N-terminus) (Wt d3-1).

## LSSILQGLYQLDT [MBK50]
  efficacy to target PEL in xenograft: demonstrated efficacies
Xenograft studies
  toxicity to the host mice: without any measurable toxicities
